Experimental data as given in patent US20090298820A1, “3-SUBSTITUTED-1H-PYRROLO[2,3-B]PYRIDINE AND 3-SUBSTITUTED-1H-PYRROLO[3,2-B]PYRIDINE COMPOUNDS, THEIR USE AS MTOR KINASE AND PI3 KINASE INHIBITORS, AND THEIR SYNTHESES” (Wyeth, priority 2008, published 2009).
Like-named read-outs stand apart in the source and are kept apart here.

Columns and labels:
PI3Kα = PI3Kα (Homo sapiens, UniProt P42336); assay: PI3K-alpha fluorescence polarization assay; assay type: biochemical; details: read-out: PI3Kα Median IC50
mTOR [1] = molecular target: T1, mTOR (Homo sapiens, UniProt P42345); assay: mTOR enzyme assay (DELFIA format, His6-S6K substrate); assay type: biochemical; details: read-out: mTOR Kinase Median IC50
PI3Kγ = PI3Kγ (Homo sapiens, UniProt P48736); assay: PI3K-gamma fluorescence polarization assay; assay type: biochemical; details: read-out: PI3Kγ Median IC50
[2] = system: human tumor xenograft models; details: cited from earlier work
[3] = system: acute lymphoblastic leukemia; details: NOS/SCID xenograft; cited from earlier work
mTOR [4] = molecular target: T1, mTOR; details: read-out: mTOR complexes / mTOR enzymes IC50; literature value; cited from earlier work

PI3Kγ, sequence (P48736 whole entry, species assumed): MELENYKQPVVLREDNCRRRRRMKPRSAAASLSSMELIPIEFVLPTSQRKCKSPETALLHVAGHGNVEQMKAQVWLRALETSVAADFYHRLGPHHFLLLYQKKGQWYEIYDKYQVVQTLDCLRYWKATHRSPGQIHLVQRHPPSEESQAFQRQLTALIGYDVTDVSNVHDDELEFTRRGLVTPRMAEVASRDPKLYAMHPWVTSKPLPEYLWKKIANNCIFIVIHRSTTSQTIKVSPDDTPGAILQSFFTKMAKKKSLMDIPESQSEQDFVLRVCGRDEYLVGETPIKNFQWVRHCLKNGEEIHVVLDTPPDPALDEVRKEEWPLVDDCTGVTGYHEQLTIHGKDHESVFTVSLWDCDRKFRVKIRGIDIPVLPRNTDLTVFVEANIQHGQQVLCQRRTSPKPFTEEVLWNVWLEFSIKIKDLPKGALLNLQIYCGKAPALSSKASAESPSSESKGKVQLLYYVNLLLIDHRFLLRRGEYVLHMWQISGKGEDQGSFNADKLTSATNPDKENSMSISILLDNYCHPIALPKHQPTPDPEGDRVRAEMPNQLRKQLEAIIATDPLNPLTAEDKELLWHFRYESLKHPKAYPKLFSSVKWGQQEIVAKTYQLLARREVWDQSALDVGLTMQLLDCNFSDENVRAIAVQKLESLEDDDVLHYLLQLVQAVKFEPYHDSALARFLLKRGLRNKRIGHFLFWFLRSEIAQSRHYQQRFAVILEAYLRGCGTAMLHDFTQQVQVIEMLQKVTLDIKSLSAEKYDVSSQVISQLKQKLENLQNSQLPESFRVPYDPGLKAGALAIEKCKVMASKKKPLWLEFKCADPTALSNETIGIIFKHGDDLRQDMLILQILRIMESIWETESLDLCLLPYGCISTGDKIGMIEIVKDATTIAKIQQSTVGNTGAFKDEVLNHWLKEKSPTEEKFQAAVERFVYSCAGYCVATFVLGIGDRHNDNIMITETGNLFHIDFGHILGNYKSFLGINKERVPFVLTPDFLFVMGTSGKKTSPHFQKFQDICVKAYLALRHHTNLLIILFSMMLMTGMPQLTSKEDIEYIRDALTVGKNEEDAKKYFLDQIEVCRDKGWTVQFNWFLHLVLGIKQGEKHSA
PI3Kα, sequence (P42336 whole entry, species assumed): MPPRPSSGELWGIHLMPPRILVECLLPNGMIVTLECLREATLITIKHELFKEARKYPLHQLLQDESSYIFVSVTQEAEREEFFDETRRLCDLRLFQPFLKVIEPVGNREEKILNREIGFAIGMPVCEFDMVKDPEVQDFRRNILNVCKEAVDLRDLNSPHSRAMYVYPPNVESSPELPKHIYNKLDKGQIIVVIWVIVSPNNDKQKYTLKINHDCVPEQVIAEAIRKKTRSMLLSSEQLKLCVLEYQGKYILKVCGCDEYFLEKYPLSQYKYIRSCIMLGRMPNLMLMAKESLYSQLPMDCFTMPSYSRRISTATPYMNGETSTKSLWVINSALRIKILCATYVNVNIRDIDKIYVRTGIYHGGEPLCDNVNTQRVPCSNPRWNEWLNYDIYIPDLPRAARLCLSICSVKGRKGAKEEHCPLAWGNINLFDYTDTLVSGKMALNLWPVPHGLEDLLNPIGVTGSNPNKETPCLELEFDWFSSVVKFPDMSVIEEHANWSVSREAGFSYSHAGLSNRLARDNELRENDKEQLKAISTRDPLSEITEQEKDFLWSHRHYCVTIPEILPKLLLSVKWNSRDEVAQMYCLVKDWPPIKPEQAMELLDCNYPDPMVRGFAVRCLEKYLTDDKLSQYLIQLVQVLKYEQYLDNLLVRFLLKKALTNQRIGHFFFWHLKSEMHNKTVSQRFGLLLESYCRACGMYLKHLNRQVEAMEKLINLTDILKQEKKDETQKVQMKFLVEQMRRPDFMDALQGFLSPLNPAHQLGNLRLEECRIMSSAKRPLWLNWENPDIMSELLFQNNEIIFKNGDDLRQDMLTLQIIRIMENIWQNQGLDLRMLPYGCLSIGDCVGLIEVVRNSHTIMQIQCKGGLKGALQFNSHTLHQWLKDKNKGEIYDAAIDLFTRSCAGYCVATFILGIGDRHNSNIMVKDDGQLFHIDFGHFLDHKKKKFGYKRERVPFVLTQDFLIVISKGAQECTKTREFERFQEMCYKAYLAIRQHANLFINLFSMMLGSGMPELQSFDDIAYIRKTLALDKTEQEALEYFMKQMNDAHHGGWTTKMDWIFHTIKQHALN
PI3Kα, sequence (P27986 whole entry partner, species assumed): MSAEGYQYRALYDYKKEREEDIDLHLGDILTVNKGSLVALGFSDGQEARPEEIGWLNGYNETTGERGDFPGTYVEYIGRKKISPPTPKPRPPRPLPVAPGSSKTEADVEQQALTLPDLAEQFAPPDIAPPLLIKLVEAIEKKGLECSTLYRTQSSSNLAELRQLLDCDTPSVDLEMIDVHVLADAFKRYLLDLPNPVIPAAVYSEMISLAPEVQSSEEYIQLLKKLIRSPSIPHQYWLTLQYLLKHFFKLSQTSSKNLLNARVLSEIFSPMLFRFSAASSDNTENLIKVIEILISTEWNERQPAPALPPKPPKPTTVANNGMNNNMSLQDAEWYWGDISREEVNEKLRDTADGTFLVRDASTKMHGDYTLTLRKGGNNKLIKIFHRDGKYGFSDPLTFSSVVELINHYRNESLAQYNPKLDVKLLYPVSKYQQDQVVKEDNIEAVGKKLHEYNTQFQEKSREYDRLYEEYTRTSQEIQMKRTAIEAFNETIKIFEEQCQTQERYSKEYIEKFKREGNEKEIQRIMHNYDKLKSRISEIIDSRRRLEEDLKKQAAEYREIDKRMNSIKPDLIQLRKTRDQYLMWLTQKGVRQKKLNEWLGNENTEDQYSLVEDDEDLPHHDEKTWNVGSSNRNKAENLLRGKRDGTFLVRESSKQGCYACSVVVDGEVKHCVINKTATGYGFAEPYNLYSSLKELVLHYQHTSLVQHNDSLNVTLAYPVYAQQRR

IC50 (PI3Kα) [nM] | melting point [°C] | IC50 (mTOR [1]) [nM] | IC50 (PI3Kγ) [nM] | Structure (SMILES) | activity against human tumor models ([2]; prostrate (PC-3) and glioblastoma (U-87)) | activity against human tumor models ([2]; I.P. dosing in mice, U87MG, PC3, MDA-MB-468, MDA-MB-435, HCT 116, SKOV3, IGROV-1) | activity in xenograft mouse model [3] | tumor growth inhibition ([2]; chronic oral administration, 400 mg/kg, A549, PC-3, WiDr) | IC50 (mTOR [4]) [nM]
109 | 118 to 122 | 1.5 | 312 | COCCN1CCN(C(=O)c2ccc(-c3ccnc4c3c(/C=C3\Oc5cccc(O)c5C3=O)cn4C)cc2)CC1 [Compound 304, (2Z)-4-hydroxy-2-{[4-(4-{[4-(2-methoxyethyl)piperazin-1-yl]carbonyl}phenyl)-1-methyl-1H-pyrrolo[2,3-b]pyridin-3-yl]methylidene}-1-benzofuran-3(2H)-one] | – | – | – | – | –
65 | 154 to 160 | 1 | 38 | COCCC1CN(C(=O)c2ccc(-c3ccnc4c3c(/C=C3\Oc5cccc(O)c5C3=O)cn4C)cc2)CCO1 (stereo not drawn) [Compound 305, (2Z)-4-hydroxy-2-{[4-(4-{[2-(2-methoxyethyl)morpholin-4-yl]carbonyl}phenyl)-1-methyl-1H-pyrrolo[2,3-b]pyridin-3-yl]methylidene}-1-benzofuran-3(2H)-one] | – | – | – | – | –
51 | 264 to 268 | 2 | 131 | Cn1cc(/C=C2\Oc3cccc(O)c3C2=O)c2c(N3CCC(C(=O)N4CC5CCC(C4)O5)CC3)ccnc21 [Compound 306, (2Z)-4-hydroxy-2-({1-methyl-4-[4-(8-oxa-3-azabicyclo[3.2.1]oct-3-ylcarbonyl)piperidin-1-yl]-1H-pyrrolo[2,3-b]pyridin-3-yl}methylidene)-1-benzofuran-3(2H)-one] | – | – | – | – | –
24 | 136 to 140 | 1.9 | 158 | Cn1cc(/C=C2\Oc3cccc(O)c3C2=O)c2c(N3CCC(C(=O)N4CCN(CCO)CC4)CC3)ccnc21 [Compound 307, (2Z)-4-hydroxy-2-{[4-(4-{[4-(2-hydroxyethyl)piperazin-1-yl]carbonyl}piperidin-1-yl)-1-methyl-1H-pyrrolo[2,3-b]pyridin-3-yl]methylidene}-1-benzofuran-3(2H)-one] | – | – | – | – | –
729 | 206 to 210 | 37 | 2800 | COCC1CN(C(=O)C2CCN(c3ccnc4c3c(/C=C3\Oc5ccc(NC(=O)Nc6cccnc6)cc5C3=O)cn4C)CC2)CCO1 (stereo not drawn) [Compound 308, 1-[(2Z)-2-{[4-(4-{[2-(methoxymethyl)morpholin-4-yl]carbonyl}piperidin-1-yl)-1-methyl-1H-pyrrolo[2,3-b]pyridin-3-yl]methylidene}-3-oxo-2,3-dihydro-1-benzofuran-5-yl]-3-pyridin-3-ylurea] | – | – | – | – | –
73 | 222 to 226 | 1.4 | 212 | COCC1CN(C(=O)c2ccc(-c3ccnc4c3c(/C=C3\Oc5cccc(O)c5C3=O)cn4C)cc2)CCO1 (stereo not drawn) [Compound 310, (2Z)-4-hydroxy-2-{[4-(4-{[2-(methoxymethyl)morpholin-4-yl]carbonyl}phenyl)-1-methyl-1H-pyrrolo[2,3-b]pyridin-3-yl]methylidene}-1-benzofuran-3(2H)-one] | – | – | – | – | –
145 | 112 to 115 | 3.8 | 698 | COCC1CN(C(=O)C2CCN(c3ccnc4c3c(/C=C3\Oc5cccc(O)c5C3=O)cn4C)CC2)CCO1 (stereo not drawn) [Compound 311, (2Z)-4-hydroxy-2-{[4-(4-{[2-(methoxymethyl)morpholin-4-yl]carbonyl}piperidin-1-yl)-1-methyl-1H-pyrrolo[2,3-b]pyridin-3-yl]methylidene}-1-benzofuran-3(2H)-one] | – | – | – | – | –

The remaining lines, values behind:

Structure (SMILES) | IC50 (PI3Kα) [nM] | melting point [°C] | IC50 (mTOR [1]) [nM] | IC50 (PI3Kγ) [nM] | activity against human tumor models ([2]; prostrate (PC-3) and glioblastoma (U-87)) | activity against human tumor models ([2]; I.P. dosing in mice, U87MG, PC3, MDA-MB-468, MDA-MB-435, HCT 116, SKOV3, IGROV-1) | activity in xenograft mouse model [3] | tumor growth inhibition ([2]; chronic oral administration, 400 mg/kg, A549, PC-3, WiDr) | IC50 (mTOR [4]) [nM]
C[C@@H]1CN(C(=O)c2ccc(-c3ccnc4c3c(/C=C3\Oc5cccc(O)c5C3=O)cn4C)cc2)C[C@H](C)O1 [Compound 303, (2Z)-2-{[4-(4-{[(2R,6S)-2,6-dimethylmorpholin-4-yl]carbonyl}phenyl)-1-methyl-1H-pyrrolo[2,3-b]pyridin-3-yl]methylidene}-4-hydroxy-1-benzofuran-3(2H)-one] | 75 | 262 to 270 | 2.3 | 98 | – | – | – | – | –
Cn1cc(/C=C2\Oc3ccc(NC(=O)Nc4cccnc4)cc3C2=O)c2c(N3CCC(C(=O)N4C5CCCC4COC5)CC3)ccnc21 [Compound 309, 1-[(2Z)-2-({1-methyl-4-[4-(3-oxa-9-azabicyclo[3.3.1]non-9-ylcarbonyl)piperidin-1-yl]-1H-pyrrolo[2,3-b]pyridin-3-yl}methylidene)-3-oxo-2,3-dihydro-1-benzofuran-5-yl]-3-pyridin-3-ylurea] | 164 | 210 to 215 | 48 | 1370 | – | – | – | – | –
Cn1cc(/C=C2\Oc3cccc(O)c3C2=O)c2c(N3CCC(C(=O)N4C5CCCC4COC5)CC3)ccnc21 [Compound 312, (2Z)-4-hydroxy-2-({1-methyl-4-[4-(3-oxa-9-azabicyclo[3.3.1]non-9-ylcarbonyl)piperidin-1-yl]-1H-pyrrolo[2,3-b]pyridin-3-yl}methylidene)-1-benzofuran-3(2H)-one] | 67 | 210 to 218 | 3.2 | 453 | – | – | – | – | –
Cn1c(=O)n(-c2ccc(C(C)(C)C#N)cc2)c2c3cc(-c4cnc5ccccc5c4)ccc3ncc21 [NVP-BEZ-235, 2-methyl-2-(4-(3-methyl-2-oxo-8-(quinolin-3-yl)-2,3-dihydro-1H-imidazo[4,5-c]quinolin-1-yl)phenyl)propanenitrile] | – | – | – | – | demonstrated activity | – | – | – | –
Oc1cccc(-c2nc(N3CCOCC3)c3oc4ncccc4c3n2)c1 [PI103, 3-(4-(4-morpholinyl)pyrido[3′,2′:4,5]furo[3,2-d]pyrimidin-2-yl)phenol] | – | – | – | – | – | demonstrated activity | – | – | –
CO[C@H]1C[C@@H]2CC[C@@H](C)[C@@](O)(O2)C(=O)C(=O)N2CCCC[C@H]2C(=O)O[C@H]([C@H](C)C[C@@H]2CC[C@@H](OC(=O)C(C)(CO)CO)[C@H](OC)C2)CC(=O)[C@H](C)/C=C(\C)[C@@H](O)[C@@H](OC)C(=O)[C@H](C)C[C@H](C)/C=C/C=C/C=C/1C [Torisel] | – | – | – | – | – | – | active | – | –
FC(F)c1nc2ccccc2n1-c1nc(N2CCOCC2)nc(N2CCOCC2)n1 [ZSTK474, 2-(2-difluoromethylbenzoimidazol-1-yl)-4,6-dimorpholino-1,3,5-triazine] | – | – | – | – | – | – | – | completely inhibited growth | > 10000
